In ChEMBL document CHEMBL1201862, “PubChem BioAssay data set” (2004):
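Where inhibition never reached the appropriate level, the endpoint shown equals the highest concentration tested. Otherwise, values were interpolated linearly from a five-concentration, 48-hour dose response in 96-well plates. The concentration for 50% growth inhibition is given as GI50.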 Activity calls are given as the source filed them. Cut-off read from the data, not from the text of the source: active = GI50 up to about 1.1 µM and inactive = higher.

Key:
Assay in all cases: NCI-60 cell line screen, 48 h
BT-549 = test system: BT-549
M14 = test system: M14
MDA-N = test system: MDA-N
COLO 205 = test system: COLO 205
NCI-H460 = test system: NCI-H460
Hs-578T = test system: Hs-578T
UACC-62 = test system: UACC-62
ACHN = test system: ACHN
SK-MEL-5 = test system: SK-MEL-5
T47D = test system: T47D
OVCAR-4 = test system: OVCAR-4
NCI-H522 = test system: NCI-H522
SNB-75 = test system: SNB-75
MDA-MB-231 = test system: MDA-MB-231
Malme-3M = test system: Malme-3M
IGROV-1 = test system: IGROV-1
SK-OV-3 = test system: SK-OV-3
SR = test system: SR
SF-268 = test system: SF-268
HL-60 = test system: HL-60
EKVX = test system: EKVX
NCI-H23 = test system: NCI-H23
RPMI-8226 = test system: RPMI-8226
CAKI-1 = test system: CAKI-1
NCI/ADR-RES = test system: NCI/ADR-RES
SN12C = test system: SN12C
A549 = test system: A549
RXF 393 = test system: RXF 393
HOP-62 = test system: HOP-62
SW-620 = test system: SW-620
PC-3 = test system: PC-3
MDA-MB-435 = test system: MDA-MB-435
MOLT-4 = test system: MOLT-4
OVCAR-3 = test system: OVCAR-3
OVCAR-5 = test system: OVCAR-5
SF-295 = test system: SF-295
KM12 = test system: KM12
UACC-257 = test system: UACC-257
SK-MEL-2 = test system: SK-MEL-2
TK-10 = test system: TK-10
U-251 = test system: U-251
HOP-92 = test system: HOP-92
DU-145 = test system: DU-145
K562 = test system: K562
OVCAR-8 = test system: OVCAR-8
SNB-19 = test system: SNB-19
LOX IMVI = test system: LOX IMVI
HCC 2998 = test system: HCC 2998
MCF7 = test system: MCF7
SF-539 = test system: SF-539
NCI-H226 = test system: NCI-H226
A498 = test system: A498
CCRF-CEM = test system: CCRF-CEM
786-0 = test system: 786-0
HT-29 = test system: HT-29
SK-MEL-28 = test system: SK-MEL-28
HCT-15 = test system: HCT-15
HCT-116 = test system: HCT-116
UO-31 = test system: UO-31

For `CN1CCCC2C(c3ccccc3)C(C3=NCCCC3)C(c3ccccc3)CC21` (centres undefined), the GI50 (BT-549) was 33.3 µM (inactive), the GI50 (M14) was 20.7 µM (inactive) and the GI50 (MDA-N) was 20.2 µM (inactive). The GI50 (COLO 205) was 26.4 µM (inactive), the GI50 (NCI-H460) was 27.7 µM (inactive) and the GI50 (Hs-578T) was 21.7 µM (inactive). The GI50 (UACC-62) was 17.8 µM (inactive), the GI50 (ACHN) was 72.3 µM (inactive) and the GI50 (SK-MEL-5) was 16.9 µM (inactive). The GI50 (T47D) was > 100 µM (inactive), the GI50 (OVCAR-4) was 73.6 µM (inactive) and the GI50 (NCI-H522) was 17 µM (inactive). For the same compound, the GI50 (SNB-75) was 13.6 µM (inactive), the GI50 (MDA-MB-231) was 51.2 µM (inactive) and the GI50 (Malme-3M) was 19.6 µM (inactive). The GI50 (IGROV-1) was 50 µM (inactive), the GI50 (SK-OV-3) was > 100 µM (inactive) and the GI50 (SR) was 32.1 µM (inactive). The GI50 (SF-268) was 59.3 µM (inactive), the GI50 (HL-60) was 31.8 µM (inactive) and the GI50 (EKVX) was 71 µM (inactive). For the same compound, the GI50 (NCI-H23) was 64.7 µM (inactive), the GI50 (RPMI-8226) was 18.4 µM (inactive) and the GI50 (CAKI-1) was > 100 µM (inactive). The GI50 (NCI/ADR-RES) was 53.8 µM (inactive), the GI50 (SN12C) was > 100 µM (inactive) and the GI50 (A549) was > 100 µM (inactive). For the same compound, the GI50 (RXF 393) was 23.4 µM (inactive), the GI50 (HOP-62) was > 100 µM (inactive) and the GI50 (SW-620) was 48.6 µM (inactive). For the same compound, the GI50 (PC-3) was 44.7 µM (inactive), the GI50 (MDA-MB-435) was 19.5 µM (inactive) and the GI50 (MOLT-4) was 31.3 µM (inactive). The GI50 (OVCAR-3) was 35.6 µM (inactive), the GI50 (OVCAR-5) was > 100 µM (inactive) and the GI50 (SF-295) was 49.2 µM (inactive). For the same compound, the GI50 (KM12) was 53.2 µM (inactive), the GI50 (UACC-257) was 19.1 µM (inactive) and the GI50 (SK-MEL-2) was > 100 µM (inactive). The GI50 (TK-10) was > 100 µM (inactive), the GI50 (U-251) was 32.2 µM (inactive) and the GI50 (HOP-92) was 85.9 µM (inactive). The GI50 (DU-145) was > 100 µM (inactive), the GI50 (K562) was 17.2 µM (inactive) and the GI50 (OVCAR-8) was 39.5 µM (inactive). For the same compound, the GI50 (SNB-19) was > 100 µM (inactive), the GI50 (LOX IMVI) was 19.5 µM (inactive) and the GI50 (HCC 2998) was 15.6 µM (inactive). For the same compound, the GI50 (MCF7) was 56.6 µM (inactive), the GI50 (SF-539) was 16 µM (inactive) and the GI50 (NCI-H226) was > 100 µM (inactive). The GI50 (A498) was 42.6 µM (inactive), the GI50 (CCRF-CEM) was 35.2 µM (inactive) and the GI50 (786-0) was 24.5 µM (inactive). For the same compound, the GI50 (HT-29) was 19.5 µM (inactive), the GI50 (SK-MEL-28) was 16.2 µM (inactive) and the GI50 (HCT-15) was 27.2 µM. For the same compound, the GI50 (HCT-116) was 15.9 µM (inactive).

With `FC(F)(F)c1ccc2c(c1)nc(-c1ccccc1)n2CC1CCCN2CCCCC12` (centres undefined) the GI50 (BT-549) was 16.7 µM (inactive), the GI50 (M14) was 17.1 µM (inactive) and the GI50 (MDA-N) was 17.6 µM (inactive). For the same compound, the GI50 (COLO 205) was 13 µM (inactive), the GI50 (NCI-H460) was 19.6 µM (inactive) and the GI50 (Hs-578T) was 16.8 µM (inactive). The GI50 (UACC-62) was 16.6 µM (inactive), the GI50 (ACHN) was 19.9 µM (inactive) and the GI50 (SK-MEL-5) was 14.9 µM (inactive). For the same compound, the GI50 (T47D) was 20 µM (inactive), the GI50 (OVCAR-4) was 34.8 µM (inactive) and the GI50 (NCI-H522) was 14.2 µM (inactive). For the same compound, the GI50 (SNB-75) was 19.3 µM (inactive), the GI50 (MDA-MB-231) was 13.6 µM (inactive) and the GI50 (Malme-3M) was 13.7 µM (inactive). The GI50 (IGROV-1) was 18.3 µM (inactive), the GI50 (SK-OV-3) was 16.9 µM (inactive) and the GI50 (SR) was 17.6 µM (inactive). The GI50 (SF-268) was 15.6 µM (inactive), the GI50 (HL-60) was 14.3 µM (inactive) and the GI50 (EKVX) was 29.2 µM (inactive). The GI50 (RPMI-8226) was 32 µM (inactive), the GI50 (CAKI-1) was 17.3 µM (inactive) and the GI50 (NCI/ADR-RES) was 16.3 µM (inactive). The GI50 (UO-31) was 0.27 µM (active), the GI50 (SN12C) was 18.6 µM (inactive) and the GI50 (A549) was 24.9 µM (inactive). The GI50 (RXF 393) was 19 µM (inactive), the GI50 (HOP-62) was 27.5 µM (inactive) and the GI50 (SW-620) was 28.1 µM (inactive). The GI50 (PC-3) was 15.3 µM (inactive), the GI50 (MDA-MB-435) was 18.3 µM (inactive) and the GI50 (MOLT-4) was 25.9 µM (inactive). The GI50 (OVCAR-3) was 23.5 µM (inactive), the GI50 (SF-295) was 15.1 µM (inactive) and the GI50 (KM12) was 19.2 µM (inactive). The GI50 (UACC-257) was 15.9 µM (inactive), the GI50 (SK-MEL-2) was 15.3 µM (inactive) and the GI50 (TK-10) was 19.6 µM (inactive). For the same compound, the GI50 (U-251) was 20.3 µM (inactive), the GI50 (HOP-92) was 18.8 µM (inactive) and the GI50 (DU-145) was 27 µM (inactive). For the same compound, the GI50 (K562) was 21.1 µM (inactive), the GI50 (OVCAR-8) was 18.6 µM (inactive) and the GI50 (SNB-19) was 34.8 µM (inactive). For the same compound, the GI50 (LOX IMVI) was 15.4 µM (inactive), the GI50 (HCC 2998) was 16 µM (inactive) and the GI50 (MCF7) was 17.1 µM (inactive). The GI50 (SF-539) was 16.4 µM (inactive), the GI50 (NCI-H226) was 20.8 µM (inactive) and the GI50 (A498) was 22.2 µM (inactive). For the same compound, the GI50 (786-0) was 15.7 µM (inactive), the GI50 (HT-29) was 16.1 µM (inactive) and the GI50 (SK-MEL-28) was 18.2 µM (inactive). The GI50 (HCT-15) was 21.9 µM and the GI50 (HCT-116) was 16.4 µM (inactive).
